Where “and” joins values, the source holds several entries; their conditions need not be identical. Identical values can stand only once.
Legend:
[1] = tested on: E. faecium ATCC19434T; experiment: MIC by microdilution, E. faecium ATCC19434T; format: cell-based, Enterococcus faecium; design: unit not given here; settings: E. faecium ATCC19434T (wild-type), in duplicate
Procedure: (§1) The antibacterial profile of each derivative was evaluated by the standard microdilution method for susceptibility testing on 16 different strains, following the guidelines of CLSI. The selected panel included: • S. aureus ATCC25923 (MecA negative, wild-type) • S. aureus ATCC29213 (MecA negative, wild-type) • S. aureus ATCC700699 (MecA positive, glycopeptide resistant) • S. aureus ST20131365 (MecA positive, glycopeptide resistant) • S. epidermidis ATCC14990 (MecA negative, wild-type) • S. epidermidis ATCC35984 (MecA positive) • S. epidermidis ST20140436 (MecA positive, glycopeptide resistant) • S. epidermidis ST20150446 (MecA positive, glycopeptide resistant) • E. faecalis JH2-2 (wild-type) • E. faecalis UCN41 (VanA positive, glycopeptide resistant) • E. faecalis V583 (VanB positive, glycopeptide resistant) • E. faecium ATCC19434T (wild-type) • E. faecium BM4147 (VanA positive, glycopeptide resistant) • E. faecium AUS0004 (VanB positive, glycopeptide resistant) • E. coli ATCC25922 (wild-type) • Clostridium difficile ATCC9689 (wild-type)
(§2) Both series issued from the SAR study were evaluated for their antibacterial activity on a panel of characterized strains obtained from the French National Reference Centers for Staphylococci (Lyon, Pr. Fréderique Laurent) and for Enterococci (Caen, Pr. Vincent Cattoir), respectively. As shown in the following tables, both series contain very active compounds on multi-resistant Gram-positive bacteria (Minimal Inhibitory Concentrations lower than comparator antibiotic ampicillin). Furthermore, a very important antibacterial effect has been shown too on a strain of Clostridium difficile, a Gram-positive, spore-forming, bacillus responsible for post-antibiotic diarrhoae.
(§3) The antibacterial activity of test compounds was evaluated on a selected panel of Gram-positive (4 Staphylococcus aureus, 4 Staphylococcus epidermidis, 3 Enterococcus faecalis, 3 Enterococcus faecium, 1 Clostridium difficile) and Gram-negative strains (1 Escherichia coli, 1 Klebsiella pneumoniae, 1 Pseudomonas aeruginosa, 1 Acinetacter baumannii) with known features of antibiotic resistance (from wild-type susceptibility to multi-drug resistance). The Minimal Inhibitory Concentration (MIC) of test compounds was determined in duplicate by the microdilution method in 96-well microplates with a final volume of 100 μL per well and Mueller-Hinton broth as the growth medium, as recommended by the CLSI (Clinical and Laboratory Standards Institute, document Mo7-A10, USA).

[2] = tested on: E. faecalis V583; experiment: MIC by microdilution, E. faecalis V583; format: cell-based, Enterococcus faecalis; settings: E. faecalis V583 (VanB positive, glycopeptide resistant), in duplicate
Procedure: as §1, §2, §3

[3] = tested on: E. faecalis JH2-2; experiment: MIC by microdilution, E. faecalis JH2-2; format: cell-based, Enterococcus faecalis; design: unit not given here; settings: E. faecalis JH2-2 (wild-type), in duplicate
Procedure: as §1, §2, §3

[4] = tested on: S. epidermidis ATCC35984; experiment: MIC by microdilution, S. epidermidis ATCC35984; format: cell-based, Staphylococcus epidermidis; settings: S. epidermidis ATCC35984 (MecA positive), in duplicate
Procedure: as §1, §2, §3

[5] = tested on: S. aureus ATCC700699; experiment: MIC by microdilution, S. aureus ATCC700699; format: cell-based, Staphylococcus aureus; design: unit not given here; settings: S. aureus ATCC700699 (MecA positive, glycopeptide resistant), in duplicate
Procedure: as §1, §2, §3

[6] = tested on: Clostridium difficile ATCC700057; experiment: MIC by microdilution, Clostridium difficile; format: cell-based; settings: strain ATCC70057 [sic] (Tables 1-2) / ATCC700057 (Tables 3-10), in duplicate
[7] = tested on: S. aureus ST20131365; experiment: MIC by microdilution, S. aureus ST20131365; format: cell-based, Staphylococcus aureus; settings: S. aureus ST20131365 (MecA positive, glycopeptide resistant), in duplicate
Procedure: as §1, §2, §3

[8] = tested on: E. faecium BM4147; experiment: MIC by microdilution, E. faecium BM4147; format: cell-based, Enterococcus faecium; design: unit not given here; settings: E. faecium BM4147 (VanA positive, glycopeptide resistant), in duplicate
Procedure: as §1, §2, §3

[9] = tested on: S. epidermidis ATCC14990; experiment: MIC by microdilution, S. epidermidis ATCC14990; format: cell-based, Staphylococcus epidermidis; settings: S. epidermidis ATCC14990 (MecA negative, wild-type), in duplicate
Procedure: as §1, §2, §3

[10] = tested on: S. epidermidis ST20140436; experiment: MIC by microdilution, S. epidermidis ST20140436; format: cell-based, Staphylococcus epidermidis; settings: S. epidermidis ST20140436 (MecA positive, glycopeptide resistant), in duplicate
Procedure: as §1, §2, §3

[11] = tested on: E. faecalis UCN41; experiment: MIC by microdilution, E. faecalis UCN41; format: cell-based, Enterococcus faecalis; design: unit not given here; settings: E. faecalis UCN41 (VanA positive, glycopeptide resistant), in duplicate
Procedure: as §1, §2, §3

[12] = tested on: panel of Gram-positive and Gram-negative strains; experiment: Antibacterial profile on the selected panel of strains; format: cell-based; settings: summary of Tables 1-12
Procedure: as §1, §2, §3

[13] = tested on: E. faecium AUS0004; experiment: MIC by microdilution, E. faecium AUS0004; format: cell-based, Enterococcus faecium; settings: E. faecium AUS0004 (VanB positive, glycopeptide resistant), in duplicate
Procedure: as §1, §2, §3

[14] = tested on: S. epidermidis ST20150446; experiment: MIC by microdilution, S. epidermidis ST20150446; format: cell-based, Staphylococcus epidermidis; settings: S. epidermidis ST20150446 (MecA positive, glycopeptide resistant), in duplicate
Procedure: as §1, §2, §3

[15] = tested on: E. coli ATCC25922; experiment: MIC by microdilution, E. coli ATCC25922; format: cell-based, Escherichia coli; settings: E. coli ATCC25922 (wild-type), in duplicate
Procedure: as §1, §2, §3

[16] = tested on: S. aureus ATCC29213; experiment: MIC by microdilution, S. aureus ATCC29213; format: cell-based, Staphylococcus aureus; settings: S. aureus ATCC29213 (MecA negative, wild-type), Mueller-Hinton broth, in duplicate
Procedure: as §1, §2, §3

[17] = tested on: S. aureus ATCC25923; experiment: MIC by microdilution, S. aureus ATCC25923; format: cell-based, Staphylococcus aureus; settings: S. aureus ATCC25923 (MecA negative, wild-type), Mueller-Hinton broth, in duplicate
Procedure: as §1, §2, §3

SMILES | Minimal Inhibitory Concentration (MIC) [1] | Minimal Inhibitory Concentration (MIC) [2] | Minimal Inhibitory Concentration (MIC) [3] | Minimal Inhibitory Concentration (MIC) [4] | Minimal Inhibitory Concentration (MIC) [5] | Minimal Inhibitory Concentration (MIC) [6] | Minimal Inhibitory Concentration (MIC) [7] | Minimal Inhibitory Concentration (MIC) [8] | Minimal Inhibitory Concentration (MIC) [9] | Minimal Inhibitory Concentration (MIC) [10] | Minimal Inhibitory Concentration (MIC) [11] | antimicrobial / antibacterial activity (in words) [12] | Minimal Inhibitory Concentration (MIC) [13] | Minimal Inhibitory Concentration (MIC) [14] | Minimal Inhibitory Concentration (MIC) [15] | Minimal Inhibitory Concentration (MIC) [16] | Minimal Inhibitory Concentration (MIC) [17]
CC[P+](CC)(CC)[Au-][c]1nn[nH]c1-c1cccc(C(=O)NC(C(=O)NC2C(=O)N3C2SC(C)(C)C3C(=O)O)c2ccccc2)c1 (stereo not shown) [TMB12] | 0.5 | 1 | 0.5 | ≤0.06 | 0.125 and 0.25 | ≤0.06 | 0.5 | 1 | ≤0.06 | ≤0.06 | 0.5 and 1 | have antimicrobial activity | 0.5 | ≤0.06 | >8 |  | 
CC[P+](CC)(CC)[Au-][c]1nn[nH]c1-c1ccc(C(=O)O)cn1 [TMB39] | 0.125 | 0.25 | 0.25 | ≤0.06 | ≤0.06 | 0.25 and 0.5 | ≤0.06 | 0.125 | ≤0.06 | ≤0.06 | 0.25 | have antimicrobial activity | 0.5 | ≤0.06 |  | ≤0.06 | ≤0.06
CC[P+](CC)(CC)[Au-][c]1nn[nH]c1-c1cccc(C(=O)NC(C(=O)O)c2ccccc2)c1 (stereo not shown) [TMB20] | 0.25 | 0.25 and 0.5 | 0.25 | ≤0.06 | 0.125 | ≤0.06 | 0.125 | 0.25 and 0.5 | ≤0.06 | ≤0.06 | 0.25 | have antimicrobial activity | 0.25 |  | >8 |  | 0.125
O=C(CCc1cnn[nH]1)N[C@@H](C(=O)O)c1ccccc1 [TMB46] | >8 | >8 | >8 | >8 | >8 | >8 | >8 | >8 | >8 | >8 | >8 | do not show an antibacterial activity | >8 | >8 |  | >8 | >8
CC[P+](CC)(CC)[Au-][c]1nn[nH]c1COC(=O)NC(C(=O)O)c1ccccc1 (stereo not shown) [TMB45] | 0.25 | 0.5 | 0.5 | ≤0.06 | 0.25 | 0.125 | 0.25 | 0.25 | ≤0.06 | ≤0.06 | 0.25 | have antimicrobial activity | 0.5 | ≤0.06 |  | 0.25 | 0.125
CC[P+](CC)(CC)[Au-][c]1nn[nH]c1CNC(=O)CCCC[C@@H]1SC[C@@H]2NC(=O)N[C@@H]21 [TMB42] | 0.25 | 1 | 0.25 | ≤0.06 | 0.25 | 0.25 | 0.25 | 0.5 | ≤0.06 | ≤0.06 | 1 | have antimicrobial activity | 0.5 | ≤0.06 |  | 0.25 | 0.125
CC[P+](CC)(CC)[Au-][c]1nn[nH]c1CCC(=O)NC(C(=O)O)c1ccccc1 (stereo not shown) [TMB21] | 0.25 | 0.25 and 0.5 | 0.25 | ≤0.06 | 0.125 | ≤0.06 | 0.125 | 0.25 and 0.5 | ≤0.06 | ≤0.06 | 0.25 | have antimicrobial activity | 0.25 | ≤0.06 | >8 |  | 
CC[P+](CC)(CC)[Au-][c]1nn[nH]c1CCS(N)(=O)=O [TMB36] | 0.25 | 0.5 | 0.25 | ≤0.06 | 0.125 | ≤0.06 |  | 0.5 | ≤0.06 | ≤0.06 | 0.25 | have antimicrobial activity | 0.25 | ≤0.06 | >8 |  | ≤0.06
